In ChEMBL document CHEMBL2440076, “New triarylpyrazoles as broad-spectrum anticancer agents: design, synthesis, and biological evaluation” (Eur J Med Chem, 2013):

Experiments:
HOP-92 = test: Growth inhibition of human HOP92 cells assessed as cell growth at 10 uM after 48 hrs by sulforhodamine B assay; assay type: functional; details: HOP-92, 48 h, read-out: Activity
SW-620 = test: Growth inhibition of human SW620 cells assessed as cell growth at 10 uM after 48 hrs by sulforhodamine B assay; assay type: functional; details: SW-620, 48 h, read-out: Activity
HOP-62 = test: Growth inhibition of human HOP62 cells after 48 hrs by sulforhodamine B assay; assay type: functional; details: HOP-62, 48 h
SF-539 = test: Growth inhibition of human SF539 cells assessed as cell growth at 10 uM after 48 hrs by sulforhodamine B assay; assay type: functional; details: SF-539, 48 h, read-out: Activity
[1] = Growth inhibition of human NCI-ADR-RES cells assessed as cell growth at 10 uM after 48 hrs by sulforhodamine B assay; assay type: functional; details: read-out: Activity
MOLT-4 [2] = test: Growth inhibition of human MOLT4 cells assessed as cell growth at 10 uM after 48 hrs by sulforhodamine B assay; assay type: functional; details: MOLT-4, 48 h, read-out: Activity
COLO 205 = test: Growth inhibition of human COLO205 cells after 48 hrs by sulforhodamine B assay; assay type: functional; details: COLO 205, 48 h
HCT-15 [3] = test: Growth inhibition of human HCT15 cells assessed as cell growth at 10 uM after 48 hrs by sulforhodamine B assay; assay type: functional; details: HCT-15, 48 h, read-out: Activity
A498 = test: Growth inhibition of human A498 cells assessed as cell growth at 10 uM after 48 hrs by sulforhodamine B assay; assay type: functional; details: A498, 48 h, read-out: Activity
[4] = Growth inhibition of human Hs 578T cells after 48 hrs by sulforhodamine B assay; assay type: functional
A549 = test: Growth inhibition of human A549/ATCC cells assessed as cell growth at 10 uM after 48 hrs by sulforhodamine B assay; assay type: functional; details: A549, 48 h, read-out: Activity
HL-60(TB) = test: Growth inhibition of human HL-60(TB) cells assessed as cell growth at 10 uM after 48 hrs by sulforhodamine B assay; assay type: functional; details: HL-60, 48 h, read-out: Activity
TK-10 [5] = test: Growth inhibition of human TK10 cells assessed as cell growth at 10 uM after 48 hrs by sulforhodamine B assay; assay type: functional; details: TK-10, 48 h, read-out: Activity
SK-MEL-28 = test: Growth inhibition of human SK-MEL-28 cells assessed as cell growth at 10 uM after 48 hrs by sulforhodamine B assay; assay type: functional; details: SK-MEL-28, 48 h, read-out: Activity
T47D [6] = test: Growth inhibition of human T47D cells assessed as cell growth at 10 uM after 48 hrs by sulforhodamine B assay; assay type: functional; details: read-out: Activity
[7] = Growth inhibition of human HCC2998 cells assessed as cell growth at 10 uM after 48 hrs by sulforhodamine B assay; assay type: functional; details: HCC 2998, 48 h, read-out: Activity
MDA-MB-231 [8] = test: Growth inhibition of human MDA-MB-231 cells after 48 hrs by sulforhodamine B assay; assay type: functional; details: MDA-MB-231, 48 h
[9] = Growth inhibition of human NCI-ADR-RES cells after 48 hrs by sulforhodamine B assay; assay type: functional
SN12C = test: Growth inhibition of human SN12C cells after 48 hrs by sulforhodamine B assay; assay type: functional
NCI-H226 = test: Growth inhibition of human NCI-H226 cells after 48 hrs by sulforhodamine B assay; assay type: functional; details: NCI-H226, 48 h
Malme-3M = test: Growth inhibition of human MALME-3M cells after 48 hrs by sulforhodamine B assay; assay type: functional
MDA-MB-435 [10] = test: Growth inhibition of human MDA-MB-435 cells assessed as cell growth at 10 uM after 48 hrs by sulforhodamine B assay; assay type: functional; details: MDA-MB-435, 48 h, read-out: Activity
SF-295 = test: Growth inhibition of human SF295 cells after 48 hrs by sulforhodamine B assay; assay type: functional, cell-based; details: SF-295, 48 h
HCT-116 = test: Growth inhibition of human HCT116 cells after 48 hrs by sulforhodamine B assay; assay type: functional; details: HCT-116, 48 h
CAKI-1 = test: Growth inhibition of human CAKI-1 cells after 48 hrs by sulforhodamine B assay; assay type: functional; details: CAKI-1, 48 h
MOLT-4 [11] = test: Growth inhibition of human MOLT4 cells after 48 hrs by sulforhodamine B assay; assay type: functional; details: MOLT-4, 48 h
MDA-MB-468 = test: Growth inhibition of human MDA-MB-468 cells assessed as cell growth at 10 uM after 48 hrs by sulforhodamine B assay; assay type: functional; details: MDA-MB-468, 48 h, read-out: Activity
MDA-MB-435 [12] = test: Growth inhibition of human MDA-MB-435 cells after 48 hrs by sulforhodamine B assay; assay type: functional, cell-based; details: MDA-MB-435, 48 h
RPMI-8226 = test: Growth inhibition of human RPMI8226 cells assessed as cell growth at 10 uM after 48 hrs by sulforhodamine B assay; assay type: functional; details: RPMI-8226, 48 h, read-out: Activity
TK-10 [13] = test: Growth inhibition of human TK10 cells after 48 hrs by sulforhodamine B assay; assay type: functional; details: TK-10, 48 h
T47D [14] = test: Growth inhibition of human T47D cells after 48 hrs by sulforhodamine B assay; assay type: functional
MDA-MB-231 [15] = test: Growth inhibition of human MDA-MB-231 cells assessed as cell growth at 10 uM after 48 hrs by sulforhodamine B assay; assay type: functional; details: MDA-MB-231, 48 h, read-out: Activity
PC-3 = test: Growth inhibition of human PC3 cells after 48 hrs by sulforhodamine B assay; assay type: functional, cell-based; details: PC-3, 48 h
HCT-15 [16] = test: Growth inhibition of human HCT15 cells after 48 hrs by sulforhodamine B assay; assay type: functional; details: HCT-15, 48 h
[17] = read-out: LC50 (the source's name)

COc1cc(-c2nn(-c3cccc(NC(=O)Nc4cccc(C(F)(F)F)c4)c3)cc2-c2ccncc2)ccc1Cl
growth at 10 µM (HOP-92): -33.6% | growth at 10 µM (SW-620): 8.92% | GI50 (HOP-62): 1340 nM | TGI (HOP-62): 4070 nM | CC50 (HOP-62; [17]): > 50000 nM | growth at 10 µM (SF-539): -34.2% | growth at 10 µM [1]: -11.9% | growth at 10 µM (MOLT-4 [2]): -26.3% | GI50 (COLO 205): 894 nM | LC50 (concentration killing 50% of cells) (COLO 205): 3430 nM | TGI (COLO 205): 1750 nM | growth at 10 µM (HCT-15 [3]): 5.28% | growth at 10 µM (A498): -5.17% | GI50 [4]: 1230 nM | TGI [4]: 12500 nM | CC50 [4, 17]: > 50000 nM | growth at 10 µM (A549): -14% | growth at 10 µM (HL-60(TB)): -18.7% | growth at 10 µM (TK-10 [5]): 2.65% | growth at 10 µM (SK-MEL-28): -18.6% | growth at 10 µM (T47D [6]): -4.03% | growth at 10 µM [7]: -18.4% | GI50 (MDA-MB-231 [8]): 811 nM | LC50 (MDA-MB-231 [8]): 25500 nM | TGI (MDA-MB-231 [8]): 2370 nM | GI50 [9]: 783 nM | TGI [9]: 3640 nM | CC50 [9, 17]: > 50000 nM | GI50 (SN12C): 1400 nM | TGI (SN12C): 21900 nM | CC50 (SN12C; [17]): > 50000 nM | GI50 (NCI-H226): 1380 nM | TGI (NCI-H226): > 50000 nM | CC50 (NCI-H226; [17]): > 50000 nM | GI50 (Malme-3M): 1050 nM | LC50 (concentration killing 50% of starting cells) (Malme-3M): 33900 nM | TGI (Malme-3M): 2410 nM | growth at 10 µM (MDA-MB-435 [10]): -50% | GI50 (SF-295): 306 nM | IC50 (SF-295): 310 nM | TGI (SF-295): 1130 nM | CC50 (SF-295; [17]): 3200 nM | GI50 (HCT-116): 900 nM | TGI (HCT-116): 7170 nM | CC50 (HCT-116; [17]): > 50000 nM | GI50 (CAKI-1): 1030 nM | TGI (CAKI-1): 3510 nM | CC50 (CAKI-1; [17]): > 50000 nM | GI50 (MOLT-4 [11]): 936 nM | TGI (MOLT-4 [11]): 3480 nM | CC50 (MOLT-4 [11]; [17]): > 50000 nM | growth at 10 µM (MDA-MB-468): -27.6% | GI50 (MDA-MB-435 [12]): 866 nM | IC50 (MDA-MB-435 [12]): 870 nM | TGI (MDA-MB-435 [12]): 2140 nM | CC50 (MDA-MB-435 [12]; [17]): 8070 nM | growth at 10 µM (RPMI-8226): -14.8% | GI50 (TK-10 [13]): 1310 nM | TGI (TK-10 [13]): 19000 nM | CC50 (TK-10 [13]; [17]): > 50000 nM | GI50 (T47D [14]): 1650 nM | TGI (T47D [14]): > 50000 nM | CC50 (T47D [14]; [17]): 50000 nM | growth at 10 µM (MDA-MB-231 [15]): -28.8% | GI50 (PC-3): 372 nM | IC50 (PC-3): 370 nM | TGI (PC-3): 2510 nM | CC50 (PC-3; [17]): > 50000 nM | GI50 (HCT-15 [16]): 870 nM | LC50 (HCT-15 [16]): 50000 nM | TGI (HCT-15 [16]): 5420 nM
